Source: patent publication US20250127828A1, “BACILLUS […] AND COMPOSITION FOR PREVENTING, TREATING, OR IMPROVING TU[…] SAME” (priority 2023, published 2025)

Assays:
[1] = tested on: M. tuberculosis XDR strain; assay type: in vivo, Mycobacterium tuberculosis
[2] = tested on: M. tuberculosis XDR strain; assay type: cell-based, Mycobacterium tuberculosis; settings: infected Raw 264.7 cells, 3 days; effect only at this very high concentration
[3] = tested on: M. tuberculosis XDR strain; assay type: in vivo, Mycobacterium tuberculosis; settings: latent model, 30 mg/kg
[4] = tested on: M. tuberculosis; test: Lung granuloma formation and immune response analysis in both tuberculosis mouse models; assay type: in vivo, Mycobacterium tuberculosis
[5] = tested on: M. tuberculosis H37Rv; test: In vitro macrophage infection model, H37Rv, CFU analysis; assay type: cell-based, Mycobacterium tuberculosis; settings: infected Raw 264.7 cells, 3 days

CO[C@H]1/C=C/O[C@@]2(C)Oc3c(C)c(O)c4c(O)c(c(/C=N/N5CCN(C)CC5)c(O)c4c3C2=O)NC(=O)/C(C)=C\C=C\[C@H](C)[C@H](O)[C@@H](C)[C@@H](O)[C@@H](C)[C@H](OC(C)=O)[C@@H]1C [RIF, rifampicin]
survival rate ([1]; in vivo): 32.2%
concentration with inhibitory effect against XDR strains [2]: 100 µg/mL

Lactobacillus
mortality / survival until the end of the experiment ([1]; Balb/c mice, high-dose XDR lung inhalation, probiotics by lung inhalation): died

NNC(=O)c1ccncc1 [INH, isoniazid]
effect on number of M. tuberculosis in the lungs [3]: significantly reduced
granuloma formation in the lungs compared to infected control mice [4]: no significant reduction
lung species diversity (Shanon-based alpha diversity) ([1]; in vivo): worsened the severity
occupancy of M. tuberculosis in the lungs (16S rRNA gene-based lung metagenomics) compared to the infected control group ([1]; in vivo): did not decrease
survival rate ([1]; in vivo): 16.6%
concentration showing significant effects against H37Rv [5]: 1 μg/mL or 10 μg/mL
concentration with inhibitory effect against XDR strains [2]: 100 µg/mL
